Measurements published in patent US10941137B2, “Difluoromethyl-phenyl triazoles” (Boehringer Ingelheim International GmbH, priority 2018, dated 2021).

Tests used:
[1] = molecular target: T1, α5β2γ2 GABAA receptor (Homo sapiens, UniProt P18507+P31644); experiment: Assay B: modulation of α5β2γ2 GABAA receptor, two-electrode voltage clamp in oocytes; assay type: cell-based; details: for EC50: oocytes, TEVC, co-application with GABA 0.5 μM (EC5-20), read-out: Assay B: GABAA α5β3γ2 EC50
T1 sequence (P31644 32-462): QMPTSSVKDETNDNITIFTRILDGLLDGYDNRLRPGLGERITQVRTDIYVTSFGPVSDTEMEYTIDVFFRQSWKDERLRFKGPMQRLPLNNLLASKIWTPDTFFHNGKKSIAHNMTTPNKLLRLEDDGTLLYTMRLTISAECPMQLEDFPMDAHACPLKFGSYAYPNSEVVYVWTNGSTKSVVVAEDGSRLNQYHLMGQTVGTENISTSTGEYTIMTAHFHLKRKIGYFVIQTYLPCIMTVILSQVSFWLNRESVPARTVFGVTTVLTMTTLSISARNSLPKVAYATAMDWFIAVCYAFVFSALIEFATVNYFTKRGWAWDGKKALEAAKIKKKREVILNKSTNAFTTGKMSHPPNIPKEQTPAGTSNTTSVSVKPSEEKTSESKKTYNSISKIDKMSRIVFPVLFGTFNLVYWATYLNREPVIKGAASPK
T1 sequence (P18507 40-376 limits assumed): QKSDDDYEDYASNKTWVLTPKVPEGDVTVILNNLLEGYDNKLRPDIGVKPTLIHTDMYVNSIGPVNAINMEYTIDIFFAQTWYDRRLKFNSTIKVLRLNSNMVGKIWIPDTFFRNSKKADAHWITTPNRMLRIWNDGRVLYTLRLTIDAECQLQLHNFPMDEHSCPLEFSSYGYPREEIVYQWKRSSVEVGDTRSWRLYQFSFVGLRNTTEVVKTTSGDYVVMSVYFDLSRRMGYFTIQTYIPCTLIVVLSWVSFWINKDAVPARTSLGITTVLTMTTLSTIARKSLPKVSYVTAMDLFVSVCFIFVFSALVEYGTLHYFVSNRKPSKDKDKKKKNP
Procedure: Assay B: In vitro evaluation of modulation of α5β2γ2 GABAA receptor.
Modulatory efficacy of compounds of formula (I) is determined electrophysiological recordings in oocytes using the two-electrode voltage clamp (TEVC) technique. Oocytes are injected with cRNA for human GABAA receptor subunits α5, β2 and γ2 in a 3:1:3 ratio and modulatory efficacy is evaluated by co-applications with a submaximal EC5-20 GABA concentration (0.5 μM) termed GABA control. As a standard, the compounds are tested in five concentrations (3.16, 0.316, 0.0316, 0.00316 and 0.000316 μM) on each oocyte starting with the lowest concentration. Background subtracted peak current amplitudes are normalized to the respective GABA control current, converted to % change and depicted +/−S.E.M. as a function of increasing compound concentrations. Plotted datapoints are fitted to the empirical Hill equation using non-linear regression. 95% confidence intervals for maximal efficacy (Bottom) and potency (Log EC50) are derived from this fitting routine.

[2] = Metabolic stability in human liver microsomes (Human MST); assay type: in vitro ADME; details: pooled human liver microsomes, pH 7.6; human liver microsomes 1 mg/mL, 1 μM compound, NADPH 1 mM, 37° C.; read-out: Human MST t1/2
Procedure: Assessment of Metabolic Stability in Human Liver Microsomes (Human MST) The metabolic stability of the compounds according to the invention may be investigated as follows: The metabolic degradation of the test compound is assayed at 37° C. with pooled human liver microsomes. The final incubation volume of 100 μL per time point contains TRIS buffer pH 7.6 at room temperature (0.1 M), MgCl2 (5 mM), microsomal protein (1 mg/mL) and the test compound at a final concentration of 1 μM. Following a short pre-incubation period at 37° C., the reactions are initiated by addition of beta-nicotinamide adenine dinucleotide phosphate, reduced form (NADPH, 1 mM), and terminated by transferring an aliquot into solvent after different time points. After centrifugation (10000 g, 5 min), an aliquot of the supernatant is assayed by LCMS/MS for the amount of parent compound. The half-life (t½) is determined by the slope of the semi-logarithmic plot of the concentration-time profile.

[3] = test system: human MDR1 P-gp; experiment: Efflux in MDCK cells transfected with the human MDR1 gene (MDCK-PGP permeability); assay type: in vitro ADME, canine; details: dog, pH 7.4, 37° C.; for efflux ratio: PEBA/PEAB; for Papp A→B: apical-to-basal apparent permeability (PEAB)
Procedure: Assessment of Efflux in Madin-Darby Canine Kidney (MDCK) Cells Transfected with the 30 Human MDR1 Gene to Assess Brain Penetration (Drug Metabolism and Disposition February 2008, 36 (2) 268-275; DOI: https://doi.org/10.1124/dmd.107.017434) Apparent permeability coefficients (PE) of the compounds across the MDCK-MDR1 cell monolayers are measured (pH 7.4, 37° C.) in apical-to-basal (AB) and basal-to-apical (BA) transport direction. AB permeability (PEAB) represents drug absorption from the blood into the 35 brain and BA permeability (PEBA) drug efflux from the brain back into the blood via both passive permeability as well as active transport mechanisms mediated by efflux and uptake transporters that are expressed on the MDCK-MDR1 cells, predominantly by the overexpressed human MDR1 P-gp. The compounds are assigned to permeability/absorption classes by comparison of the AB permeabilities with the AB permeabilities of reference compounds with known in vitro permeability and oral absorption in the human. Identical or similar permeabilities in both transport directions indicate passive permeation, vectorial permeability points to additional active transport mechanisms. Higher PEBA than PEAB indicates the involvement of active efflux mediated by MDR1 P-gp. Active transport is concentration-dependently saturable.
MDCK-MDR1 cells (1-2×10e5 cells/1 cm2 area) are seeded on filter inserts (Costar transwell polycarbonate or PET filters, 0.4 μm pore size) and cultured (DMEM) for 7 days. Subsequently, the MDR1 expression is boosted by culturing the cells with 5 mM sodium butyrate in full medium for 2 days. Compounds are dissolved in appropriate solvent (like DMSO, 1-20 mM stock solutions). Stock solutions are diluted with HTP-4 buffer (128.13 mM NaCl, 5.36 mM KCl, 1 mM MgSO4, 1.8 mM CaCl2, 4.17 mM NaHCO3, 1.19 mM Na2HPO4×7H2O, 0.41 mM NaH2PO4xH2O, 15 mM HEPES, 20 mM glucose, 0.25% BSA, pH 7.4) to prepare the transport solutions (0.1-300 μM compound, final DMSO <=0.5%). The transport solution (TL) is applied to the apical or basolateral donor side for measuring A-B or B-A permeability (3 filter replicates), respectively. The receiver side contains the same buffer as the donor side. Samples are collected at the start and end of experiment from the donor and at various time intervals for up to 2 hours also from the receiver side for concentration measurement by HPLC-MS/MS or scintillation counting. Sampled receiver volumes are replaced with fresh receiver solution.

[4] = molecular target: T2, human GABAA α5β3γ2s receptor (Homo sapiens, UniProt P18507+P31644); experiment: Assay A: in vitro inhibition of 3H-flumazenil binding, HEK cells expressing human GABAA α5β3γ2s receptor; details: 3H-flumazenil 1 nM, HEK-293 membranes, 40 min at 2° C.; Ki from IC50 by Cheng and Prusoff
T2 sequence (P18507 1-475): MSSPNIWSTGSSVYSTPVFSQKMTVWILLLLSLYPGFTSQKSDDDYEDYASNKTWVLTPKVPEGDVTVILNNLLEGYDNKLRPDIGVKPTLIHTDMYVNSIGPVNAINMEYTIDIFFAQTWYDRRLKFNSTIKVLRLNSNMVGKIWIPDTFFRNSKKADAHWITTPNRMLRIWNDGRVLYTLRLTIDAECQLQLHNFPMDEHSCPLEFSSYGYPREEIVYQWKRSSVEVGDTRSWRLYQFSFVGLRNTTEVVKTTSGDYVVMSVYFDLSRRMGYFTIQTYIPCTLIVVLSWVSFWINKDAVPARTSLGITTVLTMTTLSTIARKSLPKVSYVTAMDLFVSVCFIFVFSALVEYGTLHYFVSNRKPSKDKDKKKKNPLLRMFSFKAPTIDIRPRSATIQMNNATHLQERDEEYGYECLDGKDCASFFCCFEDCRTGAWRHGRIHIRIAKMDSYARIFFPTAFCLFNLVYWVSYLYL
T2 sequence (P31644 1-462): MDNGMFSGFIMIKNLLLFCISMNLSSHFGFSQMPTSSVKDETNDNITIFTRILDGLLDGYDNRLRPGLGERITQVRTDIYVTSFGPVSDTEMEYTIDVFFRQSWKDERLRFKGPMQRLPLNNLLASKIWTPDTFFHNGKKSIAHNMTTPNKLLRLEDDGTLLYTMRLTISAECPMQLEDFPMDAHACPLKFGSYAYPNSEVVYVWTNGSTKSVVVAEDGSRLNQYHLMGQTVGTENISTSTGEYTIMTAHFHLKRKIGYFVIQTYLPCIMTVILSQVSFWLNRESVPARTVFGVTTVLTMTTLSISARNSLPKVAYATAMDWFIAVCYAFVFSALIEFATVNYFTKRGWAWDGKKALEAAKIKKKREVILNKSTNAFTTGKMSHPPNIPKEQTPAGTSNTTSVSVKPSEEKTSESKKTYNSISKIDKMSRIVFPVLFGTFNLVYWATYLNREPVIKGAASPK
Procedure: HEK-293 cell lines with stable expression of recombinant human GABAA α5β3γ2s receptors (plasmid H46/E9/B10) are seeded in T175 polystyrene flasks or roller bottles (1700 cm^2, Fisher Scientific CCI-431191), and cultured (37 C, 5% CO˜) in Dulbecco's Modified Eagle Medium (DMEM) with GlutaMAX™ supplemented with 10% fetal bovine serum and one or both of the following antibiotics: hygromycin B ([…]; γ2 subunit) or G418 (0.5 mg/ml; […]).
When the cultures reach confluency, the DMEM is removed and the cells are washed (10 ml for T175 flasks; 50 ml for roller bottles) once in Dulbecco's Phosphate Buffered Saline (DPBS). Following addition of DPBS to the cultures (10 ml for T175 flasks; 100 ml for roller bottles) for approximately 5 min cells are easily detached from the surface by shaking or tapping the flask gently. The cell suspension is transferred to Falcon tubes and centrifuged at 23,500×g for 10 min at 2° C. The pellet is washed once in 15 ml Tris-citrate buffer (50 mM, pH 7.1) using an Ultra-Turrax homogenizer and centrifuged at 2° C. for 10 min at 27,000×g. The washed pellet is re-suspended in 15 ml Tris-citrate buffer and frozen at −80° C. until the day of the binding experiment.
On the day of the experiment the cell membrane preparation is thawed and centrifuged at 2° C. for 10 min at 27,000×g. The pellet is re-suspended, using an Ultra-Turrax homogenizer in Tris-citrate buffer, to 15-50 µg protein per assay and then used for binding assays.
Non-specific binding is determined using clonazepam (1 μM, final concentration).
All dilutions of test compounds and incubation of assay are performed in glass vials/96-vial plates. […] Compounds are dissolved in 100% DMSO (10 mM stock), diluted in 48% ethanol-water, and tested in triplicate in serial 1:3 or 1:10 dilutions. When screening large numbers of compounds only one concentration of each compound is tested in single wells. Reference compounds are not included routinely, but for each experiment performed total and nonspecific binding is compared to data obtained during validation of the assay.
Binding is either terminated by rapid filtration onto
1) Whatman GF/C glass fibre filters using a Brandel Cell harvester, followed by 5 washes with 1 ml ice-cold buffer or onto 2) UniFilter GF/C glass fibre filter plates using a Tomtec cell harvester, followed by washing with approximately 5 ml ice-cold buffer.
The amount of radioactivity on the filters is determined by conventional liquid scintillation counting using a
1) Tri-Garb™ counter (PerkinElmer Life and Analytical Sciences) for separate large filters or
2) Topcount™ counter (PerkinElmer Life and Analytical Sciences) for 96-well filter plates. Specific binding is total binding minus non-specific binding.
For screening purposes n is set to 1. The IC50 value is calculated from the concentration response curves by the non-linear regression method using the curve-fitting program GraphPad Prism. […]

| Structure (SMILES) | Assay B: GABAA α5β3γ2 Emax vs GABA [1] | EC50 [1] | half-life at 1 μM [2] | efflux ratio [3] | Papp A→B [3] | Ki [4] |
| --- | --- | --- | --- | --- | --- | --- |
| Cc1nnn(-c2ccc(C(F)F)cc2)c1COc1ccc(-n2cnc(C#N)c2)nn1 [Example 1, 1-[6-({1-[4-(difluoromethyl)phenyl]-4-methyl-1H-1,2,3-triazol-5-yl}methoxy)pyridazin-3-yl]-1H-imidazole-4-carbonitrile] | -23.3% | 1.5 nM | > 130 min | 2.6 | 18.1 ×10⁻⁶ cm/s | – |
| Cc1nnn(-c2ccc(C(F)F)cc2)c1COc1ccc(-c2ccn[nH]2)nn1 [Example 10] | -18% | 5.8 nM | > 130 min | 1.7 | 22.4 ×10⁻⁶ cm/s | – |
| Cc1nnn(-c2ccc(C(F)F)cc2)c1COc1ccc(-c2cnccn2)nn1 [Example 13] | -23% | 9 nM | > 130 min | 0.5 | 69 ×10⁻⁶ cm/s | – |

More lines, now with the values ahead:

| Assay B: GABAA α5β3γ2 Emax vs GABA [1] | EC50 [1] | half-life at 1 μM [2] | efflux ratio [3] | Papp A→B [3] | Ki [4] | Structure (SMILES) |
| --- | --- | --- | --- | --- | --- | --- |
| -25% | 5.5 nM | > 130 min | 0.6 | 68.7 ×10⁻⁶ cm/s | – | Cc1nnn(-c2ccc(C(F)F)cc2)c1COc1ccc(-n2cncn2)nn1 [Example 28, 3-({1-[4-(difluoromethyl)phenyl]-4-methyl-1H-1,2,3-triazol-5-yl}methoxy)-6-(1H-1,2,4-triazol-1-yl)pyridazine] |
| -4.3% | – | – | – | – | 0.035 nM | Cc1nnn(-c2ccc(C(F)F)cc2)c1COc1ccc(-n2nc(C#N)cc2C)nn1 [Example 34] |
| -12% | 2 nM | – | – | – | 0.27 nM | Cc1nnn(-c2ccc(C(F)F)cc2)c1COc1ccc(-n2cnc([S+](C)[O-])c2)nn1 (stereo not shown) [Example 23] |
| 0% | – | > 130 min | – | – | 0.16 nM | Cc1nnn(-c2ccc(C(F)F)cc2)c1COc1ccc(-n2cnc(C(=O)N(C)C)c2)nn1 [Example 16] |
